Counter-ions that a name gives are not always drawn.
Target: T1, R928C mutant KCNT1 channels (Homo sapiens, UniProt Q5JUK3, R909C)
T1 construct: YFP-6His; expressed in transfected cells; host or cells: HEK293T
T1 sequence (Q5JUK3 1-1235 isoform Q5JUK3-3 R928C): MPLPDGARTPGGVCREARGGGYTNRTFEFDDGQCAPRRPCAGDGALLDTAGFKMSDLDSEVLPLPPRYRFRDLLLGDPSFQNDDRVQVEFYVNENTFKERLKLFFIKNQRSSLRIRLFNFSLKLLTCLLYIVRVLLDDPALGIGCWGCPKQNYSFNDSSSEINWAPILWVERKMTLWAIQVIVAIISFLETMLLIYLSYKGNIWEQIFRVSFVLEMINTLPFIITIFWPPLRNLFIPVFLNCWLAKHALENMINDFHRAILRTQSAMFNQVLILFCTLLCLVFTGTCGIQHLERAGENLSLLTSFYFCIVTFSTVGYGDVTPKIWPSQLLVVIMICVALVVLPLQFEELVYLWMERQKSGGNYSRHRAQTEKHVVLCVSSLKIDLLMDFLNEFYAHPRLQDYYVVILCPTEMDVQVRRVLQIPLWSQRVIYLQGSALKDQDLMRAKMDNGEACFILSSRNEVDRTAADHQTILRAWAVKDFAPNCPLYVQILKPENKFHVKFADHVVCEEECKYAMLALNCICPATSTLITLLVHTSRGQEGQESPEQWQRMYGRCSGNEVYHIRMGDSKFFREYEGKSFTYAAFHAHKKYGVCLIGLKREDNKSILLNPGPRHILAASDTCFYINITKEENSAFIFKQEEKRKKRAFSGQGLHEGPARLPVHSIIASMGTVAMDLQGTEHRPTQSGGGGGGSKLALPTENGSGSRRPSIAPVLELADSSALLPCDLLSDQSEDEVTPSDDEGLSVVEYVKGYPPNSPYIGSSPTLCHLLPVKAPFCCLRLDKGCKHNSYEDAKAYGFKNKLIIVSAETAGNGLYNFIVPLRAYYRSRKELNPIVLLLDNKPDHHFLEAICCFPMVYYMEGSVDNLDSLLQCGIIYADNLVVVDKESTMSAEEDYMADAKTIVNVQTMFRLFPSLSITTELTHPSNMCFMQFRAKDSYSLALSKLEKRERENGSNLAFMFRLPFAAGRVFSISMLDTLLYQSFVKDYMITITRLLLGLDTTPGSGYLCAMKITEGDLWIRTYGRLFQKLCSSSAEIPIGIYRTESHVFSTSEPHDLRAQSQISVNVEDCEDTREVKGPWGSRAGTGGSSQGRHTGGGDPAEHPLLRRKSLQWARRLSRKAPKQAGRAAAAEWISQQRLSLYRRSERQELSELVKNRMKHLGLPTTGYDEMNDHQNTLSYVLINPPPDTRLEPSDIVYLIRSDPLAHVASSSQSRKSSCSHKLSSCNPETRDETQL
Assay: Inside-out patch clamp of HEK293T cells expressing R928C KCNT1
Type: cell-based
Conditions: inside-out patches, mean ± SEM
Description: The CHO cells were cultured in Dulbecco's modified Eagle's Medium (ThermoFisher, UK) supplemented with 10% (v/v) fetal bovine serum, 50 U/ml penicillin and 0.05 mg/ml streptomycin, and incubated at 37°C in 5% CO2 atmosphere. For whole cell recording of WT/Y796H KCNT1, CHO cells were transiently co‐transfected with concatemeric WT/Y796H and EYFP, as described previously.[29] For electrophysiological experiments, cells were plated onto borosilicate glass cover slips and used 2 to 4 days later. Human embryonic kidney 293T cells (HEK293T) were cultured in the same manner, but with medium supplemented with 2 mM L‐glutamine, and 1% (v/v) nonessential amino acids. For excised inside‐out recording of homomeric WT or mutant YFP‐tagged KCNT1, HEK293T cells plated on glass cover slips were transfected using Attractene Transfection Reagent (Qiagen, Germany) according to the manufacturer's instructions and used 2 to 3 days later.
Inside‐out patch clamp recordings were made at room temperature (23°C) from transiently transfected HEK293T cells, as described previously.[11] The pipette solution contained, in mM, 140 NaCl, 4 KCl, 2 CaCl2, 2 MgCl2, and 10 HEPES adjusted to pH 7.4 with NaOH. […] KCNT1 currents were recorded using 2 voltage protocols, depending on the number of active channels in the patch before drug application. Macroscopic currents (number of active channels > 15) were recorded in response to 100 ms voltage ramps between −120 and 120 mV applied every 2 seconds from a holding potential of −78 mV. […] With a lower number of active channels in the patch (3–15), current traces were recorded in response to 15‐second voltage steps to −20, 0, and 20 mV from a holding potential of −78 mV. Currents recorded at each voltage and each drug concentration were averaged over the duration of the trace and normalized to the average amplitudes of the corresponding current traces in drug‐free solution. […] Single channel data were analyzed using Ana software developed by Dr Michael Pusch (Istituto di Biofisica, Genova, Italy; http://users.ge.ibf.cnr.it/pusch/programs-mik.htm). […]

## O=C(OCCN1CCN(c2cccc(C(F)(F)F)c2)CC1)c1ccccc1Nc1ccnc2cc(C(F)(F)F)ccc12 [antrafenine]
  IC50: 12.3 ± 3.9 nM

## CC(C)c1c(C(=O)Nc2ccccc2)c(-c2ccccc2)c(-c2ccc(F)cc2)n1CC[C@@H](O)C[C@@H](O)CC(=O)O [atorvastatin]
  IC50: 1200 ± 300 nM

## Cc1c(O)cccc1C(=O)N[C@@H](CSc1ccccc1)[C@H](O)CN1C[C@H]2CCCC[C@H]2C[C@H]1C(=O)NC(C)(C)C [nelfinavir mesylate]
  IC50: 8 ± 1.1 nM
